From patent US20090138988A1, “MODIFICATION OF PLANT DISEASE RESISTANCE” (priority 2007, published 2009)

Tested on: P. syringae pv. tabaci
Experiment: Squalene complementation of SQS1 RNAi line resistance to nonhost pathogen
Format: in vivo, Arabidopsis
Procedure: Squalene was supplied at the concentration as indicated above each panel when transplanting two-week old seedlings and thereafter watering. P. syringae pv. tabaci was infiltrated into leaves of four-week old plants at 1×10^7 cfu/ml. The inoculated plants were kept at 19-21° C. and covered to keep high humidity. Pictures were taken 3 days post inoculation
It was hypothesized that SQS1 RNAi lines would have less squalene compared to wild-type plants. Arabidopsis has two SQS genes: SQS1 and SQS2. T-DNA knockout lines for SQS2 are not available in SALK or GABI collections. Even though both SQS1 and SQS2 have more than 80% nucleotide identity, in the SQS1 RNAi line, only the transcripts of SQS1 was reduced but not SQS2 (FIG. 10). A brief pathway of sterol biosynthesis in plants and also other pathways that may be affected by silencing of SQS1 are shown in FIG. 11. […] It was therefore shown that squalene plays a critical role in conferring nonhost resistance against certain pathogens, and the role is recoverable in susceptible RNAi lines by squalene dosing.

CC(C)=CCC/C(C)=C/CC/C(C)=C/CC/C=C(\C)CC/C=C(\C)CCC=C(C)C [squalene]
recovery of nonhost resistance of SQS1 RNAi lines (10 μM squalene fed, P. syringae pv. tabaci 1×10^7 cfu/ml, 3 days post inoculation): completely recovered resistance phenotype back to wild-type levels | recovery of nonhost resistance of SQS1 RNAi lines (squalene fed at 1 μM to 10 μM, P. syringae pv. tabaci): recovered nonhost resistance in a dose dependent manner
